Test results: PMC5323398, “Restoration of Epithelial Sodium Channel Function by Synthetic Peptides in Pseudohypoaldosteronism Type 1B Mutants” (Frontiers in Pharmacology, 2017)
Positions count from the first letter of the chain named.

Columns and labels:
αQ101K mutant hENaC = molecular target: T1, αQ101K mutant hENaC (Homo sapiens, UniProt P37088+P51168+P51170, Q101K); assay: Whole-cell patch clamp, amiloride-sensitive Na+ current, αQ101K ENaC; format: cell-based; conditions: αQ101K activated by solnatide; 10 μM amiloride
T1 construct: expressed in transfected cells
T1 sequence (P37088 1-669 Q101K): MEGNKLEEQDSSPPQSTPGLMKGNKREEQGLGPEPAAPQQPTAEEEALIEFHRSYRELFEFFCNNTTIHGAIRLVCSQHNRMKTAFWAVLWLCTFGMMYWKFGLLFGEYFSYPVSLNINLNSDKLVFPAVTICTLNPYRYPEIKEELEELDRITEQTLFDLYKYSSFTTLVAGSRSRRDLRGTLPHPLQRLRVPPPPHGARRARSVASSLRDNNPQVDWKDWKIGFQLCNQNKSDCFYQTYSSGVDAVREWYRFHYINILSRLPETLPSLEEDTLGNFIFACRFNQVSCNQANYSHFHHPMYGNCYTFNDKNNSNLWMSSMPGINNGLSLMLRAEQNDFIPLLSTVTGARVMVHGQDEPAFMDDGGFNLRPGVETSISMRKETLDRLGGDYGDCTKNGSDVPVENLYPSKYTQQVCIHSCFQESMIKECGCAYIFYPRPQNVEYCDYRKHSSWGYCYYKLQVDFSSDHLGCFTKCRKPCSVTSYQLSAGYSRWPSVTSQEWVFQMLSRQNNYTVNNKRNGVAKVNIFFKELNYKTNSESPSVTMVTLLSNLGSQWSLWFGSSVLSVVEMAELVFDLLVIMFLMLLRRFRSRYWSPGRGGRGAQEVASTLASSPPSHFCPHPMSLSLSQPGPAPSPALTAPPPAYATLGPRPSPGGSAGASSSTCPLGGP
T1 sequence (P51168 1-640): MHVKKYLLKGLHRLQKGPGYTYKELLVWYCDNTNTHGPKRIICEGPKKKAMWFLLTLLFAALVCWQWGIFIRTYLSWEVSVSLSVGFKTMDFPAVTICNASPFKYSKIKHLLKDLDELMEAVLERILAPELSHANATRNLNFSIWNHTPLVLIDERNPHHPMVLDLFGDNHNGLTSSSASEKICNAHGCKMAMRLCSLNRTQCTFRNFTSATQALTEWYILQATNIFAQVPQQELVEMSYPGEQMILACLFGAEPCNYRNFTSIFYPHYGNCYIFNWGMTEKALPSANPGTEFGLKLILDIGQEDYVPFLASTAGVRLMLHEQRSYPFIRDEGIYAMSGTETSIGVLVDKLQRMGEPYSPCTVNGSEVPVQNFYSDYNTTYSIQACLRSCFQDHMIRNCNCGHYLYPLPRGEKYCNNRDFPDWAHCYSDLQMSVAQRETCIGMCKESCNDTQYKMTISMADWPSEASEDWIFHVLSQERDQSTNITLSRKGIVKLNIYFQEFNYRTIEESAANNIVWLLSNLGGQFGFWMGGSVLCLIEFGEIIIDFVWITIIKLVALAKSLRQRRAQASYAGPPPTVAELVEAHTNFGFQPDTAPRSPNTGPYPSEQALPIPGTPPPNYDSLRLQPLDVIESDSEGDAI
T1 sequence (P51170 1-649): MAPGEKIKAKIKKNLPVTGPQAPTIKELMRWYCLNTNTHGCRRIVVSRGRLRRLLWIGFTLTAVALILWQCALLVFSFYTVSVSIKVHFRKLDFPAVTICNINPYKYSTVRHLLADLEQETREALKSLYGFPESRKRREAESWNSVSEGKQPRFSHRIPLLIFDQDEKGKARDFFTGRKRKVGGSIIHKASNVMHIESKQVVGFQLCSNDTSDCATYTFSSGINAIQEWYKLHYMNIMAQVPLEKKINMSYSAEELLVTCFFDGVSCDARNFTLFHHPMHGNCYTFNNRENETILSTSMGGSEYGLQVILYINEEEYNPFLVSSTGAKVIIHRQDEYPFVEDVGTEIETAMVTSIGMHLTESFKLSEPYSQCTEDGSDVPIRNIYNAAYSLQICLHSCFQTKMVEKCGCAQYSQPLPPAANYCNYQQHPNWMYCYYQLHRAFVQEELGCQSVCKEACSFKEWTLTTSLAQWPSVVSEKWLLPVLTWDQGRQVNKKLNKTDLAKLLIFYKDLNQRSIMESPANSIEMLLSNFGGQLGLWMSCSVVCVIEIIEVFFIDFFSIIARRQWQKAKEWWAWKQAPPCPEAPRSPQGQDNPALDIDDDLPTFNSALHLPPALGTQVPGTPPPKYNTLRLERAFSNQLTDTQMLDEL
Experimental: (§1) Human embryonic kidney HEK-293 cells (ATCC no. CRL-1573) in passages 3–25, were seeded in Dulbecco's modified Eagle medium/F12 nutrient mixture Ham plus L-glutamine (DMEM/F-12; Gibco™ by Life Technologies, LifeTech Austria), supplemented with 10% fetal bovine serum (FBS; Gibco™ by Life Technologies, LifeTech Austria) and 1% penicillin-streptomycin (Sigma-Aldrich, Vienna, Austria). Cells were maintained at 37°C with 5% CO2 in a humidified incubator.
(§2) Point mutations and single base (insertions or) deletions, causing a frameshift, were introduced into cDNA encoding α-, β-, or γ-hENaC using QuikChange Lightning Site-Directed Mutagenesis Kit (Agilent Technologies, CA, USA). Pairs of mutagenic primers were designed individually with the Primer Design Program provided on the producer's website. The same bases were changed as reported in patients or at least resulting in the same protein products. The designed primers were ordered after checking their properties using the DNA Oligos Design Tool from Sigma-Aldrich, Vienna, Austria (Table 1).
(§3) HEK-293 cells were transfected 1 day after cell seeding using X-tremeGENE HP DNA transfection reagent (Roche Diagnostics, Mannheim, Germany) according to the manufacturer's protocol. […]

αG327C mutant hENaC = molecular target: T2, αG327C mutant hENaC (Homo sapiens, UniProt P37088+P51168+P51170, G327C); assay: Whole-cell patch clamp, amiloride-sensitive Na+ current, αG327C ENaC; format: cell-based; conditions: αG327C activated by AP318; 10 μM amiloride
T2 construct: expressed in transfected cells
T2 sequence (P37088 1-669 G327C): T1 sequence (P37088 1-669 Q101K) with K101Q, G327C
T2 sequence (P51168 1-640): T1 sequence (P51168 1-640)
T2 sequence (P51170 1-649): T1 sequence (P51170 1-649)
Experimental: as §1, §2, §3

[1] = test system: mock-transfected HEK-293 cells; assay: Whole-cell current of mock-transfected cells; format: cell-based, human
Experimental: Whole-cell currents were recorded from transfected HEK-293 cells with an Axopatch 200B amplifier, DigiData 1440A and pCLAMP10.2 software (Axon Instruments, Union City, CA) at room temperature (19–22°C) 48–72 h after transfection. Currents were recorded at 10 kHz and filtered at 5 kHz. The chamber contained 1 ml bath solution of the following composition (in mM): 145 NaCl, 2.7 KCl, 1.8 CaCl2, 2 MgCl2, 5.5 glucose, and 10 HEPES, adjusted to pH 7.4 with 1 M NaOH solution. The borosilicate glass patch pipettes (Harvard Apparatus, Holliston, MA) had resistances of 2–4 MΩ. The pipette solution contained (in mM): 135 potassium methane sulphonate, 10 KCl, 6 NaCl, 1Mg2ATP, 2 Na3ATP, 10 HEPES, and 0.5 EGTA, adjusted to pH 7.2 with 1 M KOH solution. Data acquisition and storage were processed directly to a PC. […] Differences were evaluated by one-way ANOVA followed by Tukey's post-hoc test.

[2] = molecular target: human ENaC with the frameshift γV543fs (γ subunit of 597 residues, abnormal sequence after S542), co-expressed with WT α and β subunits (human) (UniProt P37088)

| Molecule | block of peptide-induced activation (αQ101K mutant hENaC) | block of peptide-induced activation (αG327C mutant hENaC) | amiloride-sensitive or peptide-induced current ([1]; 10 μM amiloride or 200 nM peptide) | whole-cell current ([1]; 10 μM amiloride, control 11.28 ± 5.68 pA) [pA] | EC50 of the increase of amiloride-sensitive Na+ current, whole-cell patch clamp at -100 mV, transfected HEK-293 cells, peptide 2-200 nM [2] [nM] |
| --- | --- | --- | --- | --- | --- |
| N=C(N)NC(=O)c1nc(Cl)c(N)nc1N [amiloride] | can be blocked by 10 μM amiloride | can be blocked by 10 μM amiloride | about zero | 10.47 ± 6.23 | – |
| AP318 (peptide) | – | – | – | – | 47.7 |
